In US20260174780A1, “BISMUTH-THIOL COMPOSITIONS AND METHODS FOR TREATING INFLAMMATORY DISEASES” (Microbion Corporation, priority 2022, published 2026):

Test system: M. abscessus strain 19977
Experiment: Chronic M. abscessus lung infection in SCID mice, inhaled treatment, lung CFU
Format: in vivo, SCID/Beige mice
Procedure: In vivo studies were conducted in mice to separately model chronic M. abscessus infection. The animals were treated for 28 days and grouped according to dosage: vehicle, low dose BisEDT, high dose BisEDT, and amikacin. At the end of treatment, blood, lungs were collected for analysis. […] Histopathology was conducted on lung samples from the in vivo studies.
A total of sixty female SCID/Beige mice between 6-8 weeks of age were used. Mice were placed up to 4 animals per cage and allowed 1 week of acclimation prior to infection.
Inoculums of M. abscessus strain 19977 (MAB) used in this study were made from highly virulent frozen stocks with low passage numbers. Bacteria were allowed to grow to log phase after 4 days on 7H10 media agar plates at 37° C. Once confluent, inoculums were made by suspending bacteria at 10^9 in Hank's balanced salt solution (HBSS) as determined by optical density (O.D.) and further quantified by serial dilution to determine the CFU/mL of suspension. At this higher concentration of bacteria, only 20 μL of inoculum was necessary to deposit […] bacteria per mouse.
On the day of infection mice were anesthetized with isoflurane by the drop jar method. Mice were scruffed in a standard one-handed grip and the nose of the mouse is held of a tube containing gauze containing a small amount of isoflurane. Mice were monitored for breathing and once rapid breaths have slowed down initially the mouse is removed from direct anesthesia and 20 μL of bacterial suspension was deposited on the left nostril. The mice then slowly breath in the droplet. Each mouse was then held in hand until complete consciousness was obtained and then the mouse was replaced into its home cage. After infection was initiated, 3 weeks were allowed to pass in order to allow the bacteria to establish a chronic lung pathology for eventual treatment.
After establishing each infection, 12 mice were euthanized the day before treatment began to determine the baseline bacterial load. Mice were euthanized using CO2 in accordance with the recommendations of the Guide for the Care and Use of Laboratory Animals (NRC 2011). Lungs were collected and homogenized then serial diluted for CFU enumeration.
A nose-only inhalation exposure chamber from CH technologies was used for this experiment. Mice were split into four treatment groups, Vehicle (buffer containing no BisEDT), amikacin (100 μg/kg/day), BisEDT “low” (200 μg/kg/day), and BisEDT “high” (1000 μg/kg/day). Each treatment group consisted of 12 mice. […]
After 28 days of treatment with BisEDT, animals were euthanized by CO2 and secondary cardiac puncture to collect whole blood for quantitation of BisEDT concentration. […] CFUs were determined after serial dilution. […]

In the case of C1C[S][Bi]([S]CC[S][Bi]2[S]CC[S]2)[S]1 [BisEDT, 1,2-(Bis(1,3-dithia-2-bismolane)thio)ethane], the “CFU count in lung homogenates” value (200 μg/kg (low)) is reported as “bacteriostatic effect”, the “CFU count in lung homogenates” value (1000 μg/kg (high) delivered to the lungs) is reported as “bactericidal” and the “lung CFU, high-dose group vs vehicle control” value (1000 μg/kg/day, p-value=0.0163) is reported as “statistically significant difference”. The “lung CFU” value (inhaled 200 and 1000 μg/kg/day, 28 days, Kruskal-Wallis test) was “dose-dependent response”.
